Reference: paper PMC8039944, “Characterization of drug-induced human mitochondrial ADP/ATP carrier inhibition” (Theranostics, 2021)
Values belong to the molecule of their own block, whether it stands above or below them.

Key:
[1] = target: T1, human mitochondrial ADP/ATP carrier isoform 1 (hAAC1) (Homo sapiens, UniProt P12235); test: […]-ATP uptake in proteoliposomes, inhibition at […]; type: biochemical; parameters: gene SLC25A4; hAAC1Δ1-10, residues 11-298; conditions: read-out: % inhibition at 100 μM
T1 sequence (P12235 11-298): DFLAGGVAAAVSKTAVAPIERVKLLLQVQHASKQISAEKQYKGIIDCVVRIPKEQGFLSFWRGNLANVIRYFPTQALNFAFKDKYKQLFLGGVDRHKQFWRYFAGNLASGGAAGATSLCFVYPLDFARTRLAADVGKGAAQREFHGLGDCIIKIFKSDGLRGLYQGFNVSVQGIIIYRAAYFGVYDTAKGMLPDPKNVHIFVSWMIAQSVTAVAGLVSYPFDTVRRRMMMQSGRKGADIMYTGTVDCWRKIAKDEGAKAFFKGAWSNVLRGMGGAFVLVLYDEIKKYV

[2] = target: T1, human mitochondrial ADP/ATP carrier isoform 1 (hAAC1); parameters: gene SLC25A4
[3] = target: T1, human mitochondrial ADP/ATP carrier isoform 1 (hAAC1); test: […]-ATP uptake in proteoliposomes, dose-response; CPM thermal shift (+[…] °C at […]); type: biochemical; parameters: gene SLC25A4; hAAC1Δ1-10, residues 11-298
[4] = target: T1, human mitochondrial ADP/ATP carrier isoform 1 (hAAC1); test: […]-ATP uptake in proteoliposomes, dose-response; type: biochemical; parameters: gene SLC25A4; hAAC1Δ1-10, residues 11-298

Structure (SMILES): CC1=C(/C=C/C(C)=C/C=C/C(C)=C/C(=O)O)C(C)(C)CCC1 [tretinoin]
inhibition at 100 µM [1]: 59%

Structure (SMILES): Nc1ncnc2c1ncn2[C@@H]1O[C@H](COP(=O)(O)OP(=O)(O)OP(=O)(O)O)[C@@H](O)[C@H]1O [ATP]
Km [2]: 3.2 µM

Structure (SMILES): O=C(O)C[C@@H]1C(=O)O[C@H]2[C@H](OC(=O)c3cc(O)c(O)c(O)c3)[C@@H](OC(=O)c3cc(O)c(O)c4c3[C@H]1[C@H](O)C(=O)O4)[C@H](OC(=O)c1cc(O)c(O)c(O)c1)O[C@@H]2COC(=O)c1cc(O)c(O)c(O)c1 [chebulinic acid]
IC50 [4]: 6.5 µM

Structure (SMILES): O=C(O)c1ccc2cc(-c3ccc(O)c(C45CC6CC(CC(C6)C4)C5)c3)ccc2c1 [CD-437]
IC50 ([4]; read-out: IC50): 20 µM

The remaining lines, values ahead:

inhibition at 100 µM [1]: 77%
Structure (SMILES): O=C1c2c(O)cccc2Cc2cccc(O)c21 [anthralin]

IC50 [3]: 2.4 µM
Structure (SMILES): Cc1ccc(C(=O)Nc2ccc(S(=O)(=O)O)c3cc(S(=O)(=O)O)cc(S(=O)(=O)O)c23)cc1NC(=O)c1cccc(NC(=O)Nc2cccc(C(=O)Nc3cc(C(=O)Nc4ccc(S(=O)(=O)O)c5cc(S(=O)(=O)O)cc(S(=O)(=O)O)c45)ccc3C)c2)c1 [suramin]
